{
  "source": "paper PMC9254247",
  "about": "“Dual-sensitive antibacterial peptide nanoparticles prevent dental caries” (Theranostics, 2022)",
  "key": {"[1]": {"system": "clinically isolated S.mutans strains", "test": "MIC against clinically isolated S. mutans strains", "type": "cell-based", "conditions": "Streptococcus mutans", "source_text": "Peptide and different pH of culture medium prepared. The pH of BHI medium […]\nwas adjusted by HCl and NaOH. […]\nIsolation and culture of clinical S.mutans strains. Ethical approval of the study and the written consent/permission forms were obtained from Institutional Review Board (IRB) at Hunan Normal University prior to the study. For each child, written permission form was reviewed and signed by their legal guardians. Plaque -biofilm samples were collected from patients, including 16 Middle-aged and young patients and 4 children (age between 48 and 72 months) diagnosed with severe early childhood caries (S-ECC) in Changsha Stomatological Hospital. After being collected using a sterilized periodontal scaler, pooled plaque samples were transferred into 1 mL thiolglycollate solution, covered with 0.5 mL sterile paraffin wax and immediately transported to the laboratory for isolation. In order to sufficient disperse the aggregates, samples should be gently vortexed and sonicated before isolation. A series of diluted dispersed samples were plated on TYCSB at 37 °C under anaerobic conditions. Then, the suspicious clones were selected and plated on the mitis salivarius agar (MSA) plus bacitracin at 37 °C under anaerobic conditions for further isolation. The isolated S.mutans were most of identified by mass spectrometry and all identified by microbiochemical reaction again. All isolated S.mutans were stored with glycerol for subsequent experiments.\n(§1) Minimal inhibition concentration (MIC) determination . S.mutans UA159 (ATCC 700610) and 20 clinical S.mutans strains were used. S.mutans UA159 was purchased from Shanghai Biofeng Biotechnology Co., LTD. These bacteria grown in brain heart infusion broth (BHI, Beijing Land Bridge, China) at 37 °C under anaerobic conditions.\nDue to bacteria incubation under the condition of excessive acid for a long time will affect its vitality, therefore, pH 5.5 was choose as acidic condition for the MIC determination. Peptides and CHX were dissolved in BHI medium of different pHs (pH 5.5 and 7.0) using serial dilutions to obtain different diluted solutions. 2 µL of bacteria (1×10^7 CFU (colony forming units) in the logarithmic phase were added into each well of 96-well plates containing 200 µL different diluted solutions. Note that […]\nthe aggregate behavior of peptides. In order to avoid interfering with the MIC test, it is important to set up the control wells which only contain different concentrations of peptides in BHI medium of different pHs. The absorbance at 600 nm was detected with a microplate reader (Multiskan Spectrum, BioTek Inc., USA) after 48 h. The inhibition rate of drugs on bacteria was calculated based on the absorbance […]\n(§2) The SYTO 9 / PI double staining and scanning electron microscopy (SEM) were also performed to evaluate the bacterial killing and bacterial membrane disruption.\n(§3) For SYTO 9/PI double staining, pHly -1 NPs was added to actively growing S. mutans UA159 (10^6 CFU/m L) at the concentration of 22 μM at pH 4.5 or pH 7.0, after 1 h incubation, the bacteria treated were imaged by using LIVE/DEAD BacLight Bacterial Viability Kit (Thermo Fisher Scientific). SYTO 9 and PI were added according to the manufacturer ’s protocol and used for labeling […]\n(§4) bacteria. […]\n(§5) For SEM, S. mutans UA159 was treated by the same way to SYTO 9/PI double staining asay and then harvested, washed, and then fixed in 2.5 % glutaraldehyde for 3 h. After dehydration by serial concentrations of ethanol solutions (10%, 25%, 50%, 75%, 95%, and 100%) and lyophiliz ation overnight, the lyophilized samples were coated with goldand then photographed by SEM."}, "S. mutans UA159": {"system": "S. mutans UA159", "test": "Bacterial killing assay (CFU counting), S. mutans UA159", "type": "cell-based, Streptococcus mutans", "conditions": "for bactericidal effect: 10 min", "description": "as §1, with “conditions. […]” for “conditions.”\nBacterial killing by pHly-1 NPs at various pHs. pHly-1 NPs were diluted in BHI medium of different pHs (pH 4.5, 5.5, 6.8, and 7.0) to obtain specific diluted solutions (final volume of 200 μ L). 1 μ L bacterial suspension (2×10^8 CFU/mL) in the logarithmic phase was added into corresponding diluted solutions and mixed […]\nindividually. […]\naliquots of 20 μL bacterial suspension were plated on BHI agar plates. The bacterial killing activity of pHly -1 NPs was measured by counting the CFU of alive bacteria with agar plating after incubation under anaerobic conditions for 48 h at 37 °C. The results were determined and presented of three repeats. Bacterial survival(%) = CFU of bacteria treated with drugs/CFU of bacteria treated with negative control× 100% 2.\nas §2, §3, §4, §5"}, "[2]": {"system": "human gingival fibroblast (HGF-1)", "test": "Cytotoxicity, CCK-8 assay", "type": "cell-based", "conditions": "HGF1", "source_text": "Figure S12. H&E staining of gingival, palatal and gastric tissues(Scale bar: 100\nSupplementary Fig.13. The toxicity of pHly -1 NPs to human gingival fibroblast\n(HGF-1) was assessment by CCK-8 assay. DMEM medium(10 % FBS) was used\nfor cell culture and DMEM m edium was used for drug preparation in toxicity tests.\nThe All of the data are represented as average±SD. Each experiment consists of 3 […]"}},
  "note": "Read-outs that look alike come from different tables or passages of the source.",
  "data": [
    {"compound": "[H]/N=C(\\N/C(=N/[H])NCCCCCCNC(=N)NC(=N)Nc1ccc(Cl)cc1)Nc1ccc(Cl)cc1", "note": "[CHX, chlorhexidine]", "values": [
      {"measurement": "MIC", "setting": "[1]; pH 5.5, pH 5.5, range over 20 clinical strains, read-out: MIC values against 20 bacterial strains", "result": "0.5 to 2", "unit": "µM"},
      {"measurement": "MIC", "setting": "[1]; pH 5.5, strain CS-1, pH 5.5, 5 repetitions, read-out: MIC", "result": 1, "unit": "µM"},
      {"measurement": "MIC", "setting": "[1]; pH 5.5, strain CS-2, pH 5.5, 5 repetitions, read-out: MIC", "result": 0.5, "unit": "µM"},
      {"measurement": "MIC", "setting": "[1]; pH 5.5, strain CS-3, pH 5.5, 5 repetitions, read-out: MIC", "result": 1, "unit": "µM"},
      {"measurement": "MIC", "setting": "[1]; pH 5.5, strain CS-4, pH 5.5, 5 repetitions, read-out: MIC", "result": 1, "unit": "µM"},
      {"measurement": "MIC", "setting": "[1]; pH 5.5, strain CS-5, pH 5.5, 5 repetitions, read-out: MIC", "result": 2, "unit": "µM"},
      {"measurement": "MIC", "setting": "[1]; pH 5.5, strain CS-6, pH 5.5, 5 repetitions, read-out: MIC", "result": 1, "unit": "µM"},
      {"measurement": "MIC", "setting": "[1]; pH 5.5, strain CS-7, pH 5.5, 5 repetitions, read-out: MIC", "result": 1, "unit": "µM"},
      {"measurement": "MIC", "setting": "[1]; pH 5.5, strain CS-8, pH 5.5, 5 repetitions, read-out: MIC", "result": 2, "unit": "µM"},
      {"measurement": "MIC", "setting": "[1]; pH 5.5, strain CS-9, pH 5.5, 5 repetitions, read-out: MIC", "result": 2, "unit": "µM"},
      {"measurement": "MIC", "setting": "[1]; pH 5.5, strain CS-10, pH 5.5, 5 repetitions, read-out: MIC", "result": 1, "unit": "µM"},
      {"measurement": "MIC", "setting": "[1]; pH 5.5, strain CS-11, pH 5.5, 5 repetitions, read-out: MIC", "result": 1, "unit": "µM"},
      {"measurement": "MIC", "setting": "[1]; pH 5.5, strain CS-12, pH 5.5, 5 repetitions, read-out: MIC", "result": 0.5, "unit": "µM"},
      {"measurement": "MIC", "setting": "[1]; pH 5.5, strain CS-13, pH 5.5, 5 repetitions, read-out: MIC", "result": 1, "unit": "µM"},
      {"measurement": "MIC", "setting": "[1]; pH 5.5, strain CS-14, pH 5.5, 5 repetitions, read-out: MIC", "result": 1, "unit": "µM"},
      {"measurement": "MIC", "setting": "[1]; pH 5.5, strain CS-15, pH 5.5, 5 repetitions, read-out: MIC", "result": 2, "unit": "µM"},
      {"measurement": "MIC", "setting": "[1]; pH 5.5, strain CS-16, pH 5.5, 5 repetitions, read-out: MIC", "result": 1, "unit": "µM"},
      {"measurement": "MIC", "setting": "[1]; pH 5.5, strain CS-17 (S-ECC child), pH 5.5, 5 repetitions, read-out: MIC", "result": 1, "unit": "µM"},
      {"measurement": "MIC", "setting": "[1]; pH 5.5, strain CS-18 (S-ECC child), pH 5.5, 5 repetitions, read-out: MIC", "result": 2, "unit": "µM"},
      {"measurement": "MIC", "setting": "[1]; pH 5.5, strain CS-19 (S-ECC child), pH 5.5, 5 repetitions, read-out: MIC", "result": 2, "unit": "µM"},
      {"measurement": "MIC", "setting": "[1]; pH 5.5, strain CS-20 (S-ECC child), pH 5.5, 5 repetitions, read-out: MIC", "result": 2, "unit": "µM"},
      {"measurement": "bactericidal effect", "setting": "S. mutans UA159; 22 μM, both acidic and neutral pH", "result": "no apparent bactericidal effect"},
      {"measurement": "bacterial survival", "setting": "S. mutans UA159; 22 μM, 120 min, kinetic assay", "result": "ca. 60%"},
      {"measurement": "bactericidal effect", "setting": "S. mutans UA159; 550 μM, both acidic and neutral conditions", "result": "kill bacteria completely"},
      {"measurement": "IC50", "setting": "[2]", "result": 4.9, "unit": "µM"}
    ]}
  ]
}
